The values below are quoted from earlier work in US20100021614A1, “COMPOSITION FOR PROMOTING BIOABSORPTION OF FLAVONOID, FOOD/BEVERAGE FOR PROMOTING BIOABSORPTION OF FLAVONOID USING THE COMPOSITION, AND METHOD FOR PRODUCTION OF THE FOOD/BEVERAGE” (priority 2006, published 2010).

The conditions of this data set: Wakui et al., J. Chromatog., 575, 131-136 (1992).

Take `O=c1cc(-c2ccccc2)oc2cc(O)c(O)c(O)c12` [baicalein]: the “fraction of the amount administered that is absorbed” value is 1/300.
